In patent US20250230173A1, “SALT FORMS OF AN AXL INHIBITOR” (Arcus Biosciences, Inc., priority 2023, published 2025):
Marks after values point to notes of the source that are not given here.

Key:
Type in all cases: physicochemical
[1] = Stability of amorphous salt forms of Compound (I), HPLC purity loss on storage; details: for HPLC Purity Loss on Day 14 (%): 14 days at 40° C., 75% RH; for HPLC Purity Loss (%): stored at RT for 10 days under ambient humidity (~75% RH), purity on day 3 minus purity on day 10
Protocol: (§1) HPLC analysis was performed with an Agilent HPLC 1260 series instrument.
The stability of various amorphous salt forms of Compound (I) was also assessed. The salt forms, in general, were prepared by suspending Compound (I) in a suitable solvent at ambient temperature and adding the corresponding acid to the mixture. The mixtures were allowed to stir until a solution was formed, filtered to remove any trace solids, and the resulting filtrate lyophilized to access the salts as solids. Characterization by XRPD established that all salt forms were amorphous. […]

[2] = Stability study of selected solid forms, HPLC purity after 7 days of storage
[3] = Stability study of selected solid forms, XRPD after 7 days of storage
Excerpt: XRPD diffractograms were collected with a Bruker, D2 Phaser or Panalytical Empyrean X-ray diffractometer. Diffractograms can be read by one of skill in the art, for example, to determine if a chemical sample is the substantially the same, different, or represents a mixture of forms. When a diffractogram is “substantially in accordance” as another diffractogram, a person of skill in the art would regard the samples resulting in the two diffractograms as the same form or same mixture of forms, taking into account minor variations for instrumentation, conditions, and the like.
A stability study comparing amorphous freebase Compound I, Freebase Form II, 2-Napsylate Form I, Fumarate Form I, Succinate Form I, and Camsylate Form I was conducted. HPLC measurements were taken after 7 days of storage at the indicated conditions.

[4] = Stability of freebase Compound (I) in amorphous form, HPLC purity on storage
Protocol: as §1
The stability of the freebase amorphous form of Compound (I), for example, as prepared in Example 1, was assessed by High Performance Liquid Chromatography (HPLC). […] Freebase Compound (I) in amorphous form was added to 5 separate vials. Each vial was sealed and stored for a period of 5 days at 20° C., 40° C., 60° C., 80° C., and 100° C., respectively. Purity was assessed by HPLC initially, and after 1, 3, and 5 days of storage.

[5] = Form conversion of 2-Napsylate crystalline forms on vacuum drying or in slurry (XRPD); details: drying at 40° C. under vacuum (overnight)
[6] = Competitive slurry of 2-Napsylate Form I and Form VI at different water activities
Protocol: To determine the impact of water activity on 2-Napsylate Form VI and 2-Napsylate Form I, a series of competitive slurry experiments were carried out at different water activities in THF/water and ACN/water solvent systems at RT and 55° C. Suspensions of 2-Napsylate Form I at each condition were made and allowed to equilibrate for 2 h followed by addition of ˜5 mg of Form VI with stirring.

[7] = 7 days, 2° C., listed as Amorphous Freebase
[8] = 7 days, 25° C., listed as Amorphous Freebase
[9] = 7 days, 40° C. / 75% RH, listed as Amorphous Freebase
[10] = T0, listed as Amorphous Freebase

Cc1cccnc1-c1ccc(-c2n[nH]c3ncc(-c4ccc5c(c4)CC[C@@H](N4C6COCC4C6)CC5)cc23)nc1 [Benzene Sulfonic]
HPLC Purity Loss on Day 14 (%) [1]: 3.4%

Cc1cccnc1-c1ccc(-c2n[nH]c3ncc(-c4ccc5c(c4)CC[C@@H](N4C6COCC4C6)CC5)cc23)nc1 [Camsylate Form I]
HPLC Purity (A %) ([2]; 7 days, 2° C.): 99.69 A %
HPLC Purity (A %) ([2]; 7 days, 25° C.): 99.68 A %
HPLC Purity (A %) ([2]; 7 days, 40° C. / 75% RH): 99.29 A %
HPLC Purity (A %) ([2]; T0): 99.69 A %
XRPD (solid form) ([3]; 7 days, 2° C.): Form I
XRPD (solid form) ([3]; 7 days, 25° C.): Form I
XRPD (solid form) ([3]; 7 days, 40° C. / 75% RH): Decreased
XRPD (solid form) ([3]; T0): Form I

Cc1cccnc1-c1ccc(-c2n[nH]c3ncc(-c4ccc5c(c4)CC[C@@H](N4C6COCC4C6)CC5)cc23)nc1 [Amorphous Compound (I) (freebase)]
HPLC Purity (A %) [2, 7]: 97.68 A %
HPLC Purity (A %) [2, 8]: 97.58 A %
HPLC Purity (A %) [2, 9]: 96.88 A %
HPLC Purity (A %) [2, 10]: 97.42 A %
XRPD (solid form) [3, 7]: Amorphous
XRPD (solid form) [3, 8]: Amorphous
XRPD (solid form) [3, 9]: Amorphous
XRPD (solid form) [3, 10]: Amorphous
HPLC purity ([4]; 40° C., Day 0): 96.45 % purity
HPLC purity ([4]; 40° C., Day 1): 96.12% purity
HPLC purity ([4]; 40° C., Day 3): 95.87% purity
HPLC purity ([4]; 40° C., Day 5): 95.00% purity
HPLC purity ([4]; 60° C., Day 0): 96.45 % purity
HPLC purity ([4]; 60° C., Day 1): 95.92% purity
HPLC purity ([4]; 60° C., Day 3): 93.06% purity
HPLC purity ([4]; 60° C., Day 5): 92.39% purity
HPLC purity ([4]; 80° C., Day 0): 96.45 % purity
HPLC purity ([4]; 80° C., Day 1): 95.01% purity
HPLC purity ([4]; 80° C., Day 3): 91.87% purity
HPLC purity ([4]; 80° C., Day 5): 89.86% purity
HPLC purity ([4]; 100° C., Day 0): 96.45 % purity
HPLC purity ([4]; 100° C., Day 1): 90.13% purity
HPLC purity ([4]; 100° C., Day 3): 74.66% purity
HPLC purity ([4]; 100° C., Day 5): 68.00% purity
HPLC purity ([4]; r.t., Day 0): 96.45 % purity
HPLC purity ([4]; r.t., Day 1): 96.23% purity
HPLC purity ([4]; r.t., Day 3): 96.01% purity
HPLC purity ([4]; r.t., Day 5): 96.03% purity
Decomposition on storage (HPLC) ([4]; sealed vials, 5 days at 20° C., 40° C., 60° C., 80° C., 100° C.): underwent decomposition

Cc1cccnc1-c1ccc(-c2n[nH]c3ncc(-c4ccc5c(c4)CC[C@@H](N4C6COCC4C6)CC5)cc23)nc1 [Form V]
Crystal form after drying [5]: Form VII after

Cc1cccnc1-c1ccc(-c2n[nH]c3ncc(-c4ccc5c(c4)CC[C@@H](N4C6COCC4C6)CC5)cc23)nc1 [Citrate]
HPLC Purity Loss on Day 14 (%) [1]: 14.2%

Cc1cccnc1-c1ccc(-c2n[nH]c3ncc(-c4ccc5c(c4)CC[C@@H](N4C6COCC4C6)CC5)cc23)nc1 [Fumarate Form I]
HPLC Purity (A %) ([2]; 7 days, 2° C.): 98.01 A %
HPLC Purity (A %) ([2]; 7 days, 25° C.): 97.94 A %
HPLC Purity (A %) ([2]; 7 days, 40° C. / 75% RH): 95.29 A %
HPLC Purity (A %) ([2]; T0): 97.84 A %
XRPD (solid form) ([3]; 7 days, 2° C.): Form I
XRPD (solid form) ([3]; 7 days, 25° C.): Form I
XRPD (solid form) ([3]; 7 days, 40° C. / 75% RH): Form I
XRPD (solid form) ([3]; T0): Form I

Cc1cccnc1-c1ccc(-c2n[nH]c3ncc(-c4ccc5c(c4)CC[C@@H](N4C6COCC4C6)CC5)cc23)nc1 [Chloride]
HPLC Purity Loss on Day 14 (%) [1]: 1.5%
HPLC Purity Loss (%) [1]: 6.6* %

Cc1cccnc1-c1ccc(-c2n[nH]c3ncc(-c4ccc5c(c4)CC[C@@H](N4C6COCC4C6)CC5)cc23)nc1 [Freebase Form II]
HPLC Purity (A %) ([2]; 7 days, 25° C.): 99.44 A %
HPLC Purity (A %) ([2]; 7 days, 40° C. / 75% RH): 99.36 A %
HPLC Purity (A %) ([2]; 7 days, 60° C.): 99.22 A %
Chemical and physical stability compared to the other forms tested ([2]; Example 6 stability study): better chemical and physical stability
HPLC Purity (A %) ([2]; T0): 100.0 A %
XRPD (solid form) ([3]; 7 days, 25° C.): Form II
XRPD (solid form) ([3]; 7 days, 40° C. / 75% RH): Form II
XRPD (solid form) ([3]; 7 days, 60° C.): Form I
XRPD (solid form) ([3]; T0): Form II

Cc1cccnc1-c1ccc(-c2n[nH]c3ncc(-c4ccc5c(c4)CC[C@@H](N4C6COCC4C6)CC5)cc23)nc1 [Succinate Form I]
HPLC Purity (A %) ([2]; 7 days, 2° C.): 97.74 A %
HPLC Purity (A %) ([2]; 7 days, 25° C.): 98.22 A %
HPLC Purity (A %) ([2]; 7 days, 40° C. / 75% RH): 89.76 A %
HPLC Purity (A %) ([2]; T0): 98.09 A %
XRPD (solid form) ([3]; 7 days, 2° C.): Form I
XRPD (solid form) ([3]; 7 days, 25° C.): Form I
XRPD (solid form) ([3]; 7 days, 40° C. / 75% RH): Form I
XRPD (solid form) ([3]; T0): Form I

Cc1cccnc1-c1ccc(-c2n[nH]c3ncc(-c4ccc5c(c4)CC[C@@H](N4C6COCC4C6)CC5)cc23)nc1
2-Napsyalte Crystal Form ([6]; 55° C., H2O, 1 w): Gel Formation
2-Napsyalte Crystal Form ([6]; 55° C., H2O, 2 d): Gel Formation
2-Napsyalte Crystal Form ([6]; 55° C., THF, 1 w): Form I (majorly)
2-Napsyalte Crystal Form ([6]; 55° C., THF, 2 d): Form VI (majorly)
2-Napsyalte Crystal Form ([6]; 55° C., THF/H2O (aw = 0.2), 1 w): Form I
2-Napsyalte Crystal Form ([6]; 55° C., THF/H2O (aw = 0.2), 2 d): Form I (majorly)
2-Napsyalte Crystal Form ([6]; 55° C., THF/H2O (aw = 0.4), 1 w): Gel Formation
2-Napsyalte Crystal Form ([6]; 55° C., THF/H2O (aw = 0.4), 2 d): Gel Formation
2-Napsyalte Crystal Form ([6]; 55° C., THF/H2O (aw = 0.6), 1 w): Gel Formation
2-Napsyalte Crystal Form ([6]; 55° C., THF/H2O (aw = 0.6), 2 d): Gel Formation
2-Napsyalte Crystal Form ([6]; 55° C., THF/H2O (aw = 0.8), 1 w): Gel Formation
2-Napsyalte Crystal Form ([6]; 55° C., THF/H2O (aw = 0.8), 2 d): Gel Formation
2-Napsylate Crystal Form ([6]; RT, ACN, 1 d): Form I
2-Napsylate Crystal Form ([6]; RT, ACN/H2O (aw = 0.2), 1 d): Form I
2-Napsylate Crystal Form ([6]; RT, ACN/H2O (aw = 0.4), 1 d): Form I
2-Napsylate Crystal Form ([6]; RT, ACN/H2O (aw = 0.6), 1 d): Form I
2-Napsylate Crystal Form ([6]; RT, ACN/H2O (aw = 0.8), 1 d): Gel Formation
2-Napsyalte Crystal Form ([6]; RT, H2O, 1 w): Form IX
2-Napsylate Crystal Form ([6]; RT, H2O, 1 d (ACN series)): Form I
2-Napsyalte Crystal Form ([6]; RT, H2O, 2 d): Form I
2-Napsyalte Crystal Form ([6]; RT, THF, 1 w): Form I (majorly)
2-Napsyalte Crystal Form ([6]; RT, THF, 2 d): Form VI (majorly)
2-Napsyalte Crystal Form ([6]; RT, THF/H2O (aw = 0.2), 1 w): Form I (majorly)
2-Napsyalte Crystal Form ([6]; RT, THF/H2O (aw = 0.2), 2 d): Form I (majorly)
2-Napsyalte Crystal Form ([6]; RT, THF/H2O (aw = 0.4), 1 w): Gel Formation
2-Napsyalte Crystal Form ([6]; RT, THF/H2O (aw = 0.4), 2 d): Gel Formation
2-Napsyalte Crystal Form ([6]; RT, THF/H2O (aw = 0.6), 1 w): Gel Formation
2-Napsyalte Crystal Form ([6]; RT, THF/H2O (aw = 0.6), 2 d): Gel Formation
2-Napsyalte Crystal Form ([6]; RT, THF/H2O (aw = 0.8), 1 w): Gel Formation
2-Napsyalte Crystal Form ([6]; RT, THF/H2O (aw = 0.8), 2 d): Gel Formation

Cc1cccnc1-c1ccc(-c2n[nH]c3ncc(-c4ccc5c(c4)CC[C@@H](N4C6COCC4C6)CC5)cc23)nc1 [Benzoate]
HPLC Purity Loss (%) [1]: 3.0* %
